In ChEMBL document CHEMBL1137297, “Synthesis and pharmacological evaluation of novel octahydro-1H-pyrido[1,2-a]pyrazine as mu-opioid receptor antagonists” (J Med Chem, 2006):

Legend:
Assay type in all cases: cell-based
[1] = biological target: Delta-type opioid receptor (Homo sapiens, UniProt P41143); assay: Inhibition of [3H]diprenorphine binding to human cloned delta opioid receptor expressed in CHO cells at 10 uM
[2] = biological target: Mu-type opioid receptor (Homo sapiens, UniProt P35372); assay: Inhibition of [3H]diprenorphine binding to human cloned mu opioid receptor expressed in CHO cells at 10 uM
Chain of Mu-type opioid receptor (P35372 whole entry): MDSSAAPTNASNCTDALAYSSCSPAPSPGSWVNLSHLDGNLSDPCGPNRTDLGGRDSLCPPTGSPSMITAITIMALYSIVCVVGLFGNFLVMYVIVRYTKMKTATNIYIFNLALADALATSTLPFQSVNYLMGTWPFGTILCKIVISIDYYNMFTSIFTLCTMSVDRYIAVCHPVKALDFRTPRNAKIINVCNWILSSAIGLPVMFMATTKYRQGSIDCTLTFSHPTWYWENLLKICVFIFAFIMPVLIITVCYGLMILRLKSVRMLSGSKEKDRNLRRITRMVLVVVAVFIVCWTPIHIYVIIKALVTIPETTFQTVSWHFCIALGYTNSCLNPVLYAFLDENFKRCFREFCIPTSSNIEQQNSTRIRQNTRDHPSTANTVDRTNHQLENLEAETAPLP

[3] = biological target: Kappa-type opioid receptor (Homo sapiens, UniProt P41145); assay: Inhibition of [3H]diprenorphine binding to human cloned kappa opioid receptor expressed in CHO cells at 10 uM
Chain of Kappa-type opioid receptor (P41145 whole entry): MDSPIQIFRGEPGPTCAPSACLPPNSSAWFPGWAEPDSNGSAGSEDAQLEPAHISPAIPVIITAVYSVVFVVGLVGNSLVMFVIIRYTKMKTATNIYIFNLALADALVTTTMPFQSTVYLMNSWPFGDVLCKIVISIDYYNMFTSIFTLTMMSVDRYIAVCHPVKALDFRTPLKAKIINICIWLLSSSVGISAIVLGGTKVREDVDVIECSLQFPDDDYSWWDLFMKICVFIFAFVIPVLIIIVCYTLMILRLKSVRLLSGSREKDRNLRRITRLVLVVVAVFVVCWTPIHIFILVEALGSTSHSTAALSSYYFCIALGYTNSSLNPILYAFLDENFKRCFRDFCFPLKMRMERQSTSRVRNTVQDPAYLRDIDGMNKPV

Chain of Delta-type opioid receptor (P41143 whole entry): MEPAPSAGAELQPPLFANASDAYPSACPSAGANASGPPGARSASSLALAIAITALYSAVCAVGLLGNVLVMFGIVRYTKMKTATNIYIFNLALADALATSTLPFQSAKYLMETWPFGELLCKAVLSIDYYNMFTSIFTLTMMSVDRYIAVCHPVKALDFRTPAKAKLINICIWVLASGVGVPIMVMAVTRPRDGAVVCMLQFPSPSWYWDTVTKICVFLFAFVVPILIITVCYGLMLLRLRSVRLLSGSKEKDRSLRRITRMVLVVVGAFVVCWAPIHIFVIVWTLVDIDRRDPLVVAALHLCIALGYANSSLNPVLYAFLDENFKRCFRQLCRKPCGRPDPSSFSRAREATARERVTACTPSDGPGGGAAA

SMILES | inhibition [1] [%] | inhibition [2] [%] | inhibition [3] [%]
COC(=O)c1cccc([C@]2(C)C[C@@H]3CN(Cc4ccccc4)[C@@H](c4ccccc4)CN3C[C@@H]2C)c1 | 39 | 24 | 6
C[C@H]1CN2CCN(C)C[C@H]2C[C@@]1(C)c1cccc(O)c1 | 11 | 69 | 60
